Data: ChEMBL document CHEMBL2380227, “Ginkgetin induces apoptosis via activation of caspase and inhibition of survival genes in PC-3 prostate cancer cells” (Bioorg Med Chem Lett, 2013)
Activity calls are given as the source filed them.

Legend:
[1] = system: PC-3; experiment: Induction of apoptosis in human PC3 cells assessed as supression of Cyclin-D1 mRNA expression at 15 to 30 uM after 24 hrs by RT-PCR analysis; type: functional, cell-based
[2] = system: PC-3; experiment: Induction of apoptosis in human PC3 cells assessed as supression of Cyclin-D1 expression at 15 to 30 uM after 24 hrs by Western blotting; type: functional, cell-based
[3] = system: PC-3; experiment: Cell cycle arrest in human PC3 cells assessed as sub-G1 accumulation after 24 hrs by propidium iodide staining-based flow cytometry; type: functional
[4] = system: PC-3; experiment: Induction of apoptosis in human PC3 cells assessed as supression of survivin expression at 15 to 30 uM after 24 hrs by Western blotting; type: functional, cell-based
[5] = system: PC-3; experiment: Induction of apoptosis in human PC3 cells assessed as supression of survivin mRNA expression at 15 to 30 uM after 24 hrs by RT-PCR analysis; type: functional, cell-based
[6] = system: PC-3; experiment: Induction of apoptosis in human PC3 cells assessed as increase in PARP cleavage at 15 to 30 uM after 24 hrs by Western blotting; type: functional, cell-based
[7] = system: PC-3; experiment: Induction of apoptosis in human PC3 cells assessed as supression of Bcl-2 expression at 15 to 30 uM after 24 hrs by Western blotting; type: functional, cell-based
[8] = system: PC-3; experiment: Induction of apoptosis in human PC3 cells assessed as cell shrinkage at 15 to 30 uM after 24 hrs by inverted microscopy; type: functional, cell-based
[9] = system: PC-3; experiment: Induction of apoptosis in human PC3 cells assessed as increase in PARP cleavage at 30 uM after 24 hrs by Western blotting in presence of Z-DEVD-FMK; type: functional, cell-based
[10] = system: PC-3; experiment: Cytotoxicity against human PC3 cells after 24 hrs by MTT assay; type: functional, cell-based
[11] = system: PC-3; experiment: Induction of apoptosis in human PC3 cells assessed as supression of Bcl-2 mRNA expression at 15 to 30 uM after 24 hrs by RT-PCR analysis; type: functional, cell-based
[12] = system: PC-3; experiment: Induction of apoptosis in human PC3 cells assessed as increase in caspase-3 cleavage at 15 to 30 uM after 24 hrs by immunofluorescence assay relative to control; type: functional, cell-based
[13] = system: PC-3; experiment: Cell cycle arrest in human PC3 cells assessed as sub-G1 accumulation at 30 uM after 24 hrs by propidium iodide staining-based flow cytometry in presence of Z-DEVD-FMK; type: functional
[14] = system: PC-3; experiment: Induction of apoptosis in human PC3 cells assessed as supression of Bcl-XL mRNA expression at 15 to 30 uM after 24 hrs by RT-PCR analysis; type: functional, cell-based
[15] = system: PC-3; experiment: Induction of apoptosis in human PC3 cells assessed as increase in caspase-3 cleavage at 30 uM after 24 hrs by Western blotting in presence of Z-DEVD-FMK; type: functional, cell-based
[16] = system: PC-3; experiment: Induction of apoptosis in human PC3 cells assessed as increase in caspase-3 cleavage at 15 to 30 uM after 24 hrs by Western blotting; type: functional, cell-based
[17] = system: PC-3; experiment: Induction of apoptosis in human PC3 cells assessed as supression of Bcl-XL expression at 15 to 30 uM after 24 hrs by Western blotting; type: functional, cell-based
[18] = system: PC-3; experiment: Induction of apoptosis in human PC3 cells assessed as apoptotic bodies at 15 to 30 uM after 24 hrs by inverted microscopy; type: functional, cell-based

Measured: Activity

COc1cc(O)c2c(=O)cc(-c3ccc(OC)c(-c4c(O)cc(O)c5c(=O)cc(-c6ccc(O)cc6)oc45)c3)oc2c1
active: [1] | [2] | [3] Dose-dependent effect | [4] | [5] | [6] | [7] | [8] | [9] | [10] Dose-dependent effect | [11] | [12] | [13] | [14] | [15] | [16] | [17] | [18]
